Data on 18 molecules can be found in patent publication US9527867B2, “Antibacterial biaromatic derivatives” (Actelion Pharmaceuticals Ltd., priority 2013, dated 2016).

≈ marks a conversion by molar mass, not a printed value.

What all share (experiment): Bacterial growth minimal inhibitory concentration (broth microdilution, CLSI M7-A7)
Common to all, as to assay type: cell-based
Background: In broth dilution the organism is exposed to a series of concentrations in liquid medium.

Assay [1] deals with Enterococcus faecium A949. The conditions noted are these: Enterococcus faecium, A949, cation-adjusted Mueller-Hinton Broth, multiply-resistant strain (in particular quinolone-resistant), read-out: MIC for E. faecium A949. The procedure: (§1) Minimal Inhibitory Concentrations (MICs; mg/L) were determined in cation-adjusted Mueller-Hinton Broth by a microdilution method following the description given in “Methods for Dilution Antimicrobial Susceptibility Tests for Bacteria that Grow Aerobically”, Approved standard, 7th ed., Clinical and Laboratory Standards Institute (CLSI) Document M7-A7, Wayne, Pa., USA (2006).
(§2) All Example compounds were tested against several Gram positive and Gram negative bacteria. […] Staphylococcus aureus A798, Enterococcus faecium A949 and Acinetobacter baumannii T6474 are multiply-resistant strains (in particular quinolone-resistant), while Moraxella catarrhalis A894 is a quinolone-sensitive strain and Staphylococcus aureus ATCC29213 is a methicillin-sensitive and quinolone-sensitive strain.

Assay [2] deals with Staphylococcus aureus A798. The conditions noted are these: Staphylococcus aureus, A798, cation-adjusted Mueller-Hinton Broth, multiply-resistant strain (in particular quinolone-resistant), read-out: MIC for S. aureus A798. The procedure: as §1, §2
For assay [3], the system named is Staphylococcus aureus ATCC29213. To be noted: Staphylococcus aureus, ATCC29213, cation-adjusted Mueller-Hinton Broth, methicillin-sensitive and quinolone-sensitive strain, read-out: MIC for S. aureus ATCC29213. The protocol:
as §1, §2

Assay [4] concerns Acinetobacter baumannii T6474. To be noted: Acinetobacter baumannii, T6474, cation-adjusted Mueller-Hinton Broth, multiply-resistant strain (in particular quinolone-resistant). The protocol: as §1, §2
Assay [5] relates to Moraxella catarrhalis A894. The conditions noted are these: Moraxella catarrhalis, A894, cation-adjusted Mueller-Hinton Broth, quinolone-sensitive strain. The protocol: as §1, §2

As usually defined, the MIC is the smallest concentration in the dilution series that meets the test's criterion for growth inhibition.

Take `N#Cc1cccc(-c2cccc(CNCCc3nn(-c4ccc5c(n4)NC(=O)CO5)c(=O)o3)c2O)n1` [Example 61, 6-[2-hydroxy-3-({2-[5-oxo-4-(3-oxo-3,4-dihydro-2H-pyrido[3,2-b][1,4]oxazin-6-yl)-4,5-dihydro-[1,3,4]oxadiazol-2-yl]-ethylamino}-methyl)-phenyl]-pyridine-2-carbonitrile]: the MIC in assay [1] was 2 µg/mL (≈ 4.12 µM); in assay [2] it was 0.5 µg/mL (≈ 1.03 µM); in assay [3], 0.25 µg/mL (≈ 0.515 µM); in assay [4], 0.5 µg/mL (≈ 1.03 µM); in assay [5], at most 0.016 µg/mL.
As for `COc1ccnc(-c2cccc(CNCC[C@@H]3CN(c4ccc5c(c4)NC(=O)CS5)C(=O)O3)c2)c1` [Example 14, 6-((R)-5-{2-[3-(4-methoxy-pyridin-2-yl)-benzylamino]-ethyl}-2-oxo-oxazolidin-3-yl)-4H-benzo[1,4]thiazin-3-one], the MIC is 2 µg/mL (≈ 4.08 µM) in assay [1]; 0.125 µg/mL (≈ 0.255 µM) in assay [2]; 0.125 µg/mL (≈ 0.255 µM) in assay [3]; 0.25 µg/mL (≈ 0.51 µM) in assay [4]; at most 0.016 µg/mL in assay [5].
`COc1cccc(-c2cccc(CNCC[C@H]3CN(c4ccc5c(n4)NC(=O)CO5)C(=O)O3)c2)c1` [Example 4, 6-((S)-5-{2-[(3′-methoxy-biphenyl-3-ylmethyl)-amino]-ethyl}-2-oxo-oxazolidin-3-yl)-4H-pyrido[3,2-b][1,4]oxazin-3-one]: the MIC in assay [1] was found to be 4 µg/mL (≈ 8.43 µM); in assay [2] it was 0.25 µg/mL (≈ 0.527 µM); in assay [3], 0.25 µg/mL (≈ 0.527 µM); in assay [4], 0.5 µg/mL (≈ 1.05 µM); in assay [5] it was 0.031 µg/mL (≈ 0.0653 µM).
Regarding `N#Cc1cccc(-c2cccc(CNCCc3cn(-c4ccc5c(n4)NC(=O)CO5)c(=O)o3)c2O)n1` [Example 96, 6-[2-hydroxy-3-({2-[2-oxo-3-(3-oxo-3,4-dihydro-2H-pyrido[3,2-b][1,4]oxazin-6-yl)-2,3-dihydro-oxazol-5-yl]-ethylamino}-methyl)-phenyl]-pyridine-2-carbonitrile], the MIC is 1 µg/mL (≈ 2.06 µM) in assay [1]; 0.031 µg/mL (≈ 0.064 µM) in assay [2]; 0.031 µg/mL (≈ 0.064 µM) in assay [3]; 0.125 µg/mL (≈ 0.258 µM) in assay [4]; at most 0.016 µg/mL in assay [5].
Consider `COc1cnnc(-c2cccc(CNCC[C@@H]3CN(c4ccc5c(n4)NC(=O)CS5)C(=O)O3)c2)c1` [Example 98, 6-((R)-5-{2-[3-(5-methoxy-pyridazin-3-yl)-benzylamino]-ethyl}-2-oxo-oxazolidin-3-yl)-4H-pyrido[3,2-b][1,4]thiazin-3-one], for which the minimal inhibitory concentration (MIC) was found to be 4 µg/mL (≈ 8.12 µM) in assay [1]; 0.125 µg/mL (≈ 0.254 µM) in assay [2]; 0.25 µg/mL (≈ 0.508 µM) in assay [3]; 0.25 µg/mL (≈ 0.508 µM) in assay [4]; 0.031 µg/mL (≈ 0.0629 µM) in assay [5].
On to `N#Cc1cccc(-c2cc(CNCC[C@H]3CN(c4ccc5c(n4)NC(=O)CO5)C(=O)O3)ccn2)c1` [Example 46, 3-[4-({2-[(S)-2-oxo-3-(3-oxo-3,4-dihydro-2H-pyrido[3,2-b][1,4]oxazin-6-yl)-oxazolidin-5-yl]-ethylamino}-methyl)-pyridin-2-yl]-benzonitrile], for which the MIC stood at 2 µg/mL (≈ 4.25 µM) in assay [1]; 0.5 µg/mL (≈ 1.06 µM) in assay [2]; 0.5 µg/mL (≈ 1.06 µM) in assay [3]; 0.25 µg/mL (≈ 0.531 µM) in assay [4]; 0.031 µg/mL (≈ 0.0659 µM) in assay [5].
Turning to `COc1cncc(-c2cccc(CNCC[C@@H]3CN(c4ccc5c(c4)NC(=O)CS5)C(=O)O3)c2)n1` [Example 25, 6-((R)-5-{2-[3-(6-methoxy-pyrazin-2-yl)-benzylamino]-ethyl}-2-oxo-oxazolidin-3-yl)-4H-benzo[1,4]thiazin-3-one], the MIC in assay [1] was 1 µg/mL (≈ 2.03 µM); in assay [2] it was 0.031 µg/mL (≈ 0.0631 µM); in assay [3], 0.031 µg/mL (≈ 0.0631 µM); in assay [4], 0.25 µg/mL (≈ 0.509 µM); in assay [5] it was at most 0.016 µg/mL.
On to `COc1ccnc(-c2cccc(CNCC[C@H]3CN(c4ccc5c(n4)NC(=O)CO5)C(=O)O3)c2O)c1` [Example 106, 6-((S)-5-{2-[2-hydroxy-3-(4-methoxy-pyridin-2-yl)-benzylamino]-ethyl}-2-oxo-oxazolidin-3-yl)-4H-pyrido[3,2-b][1,4]oxazin-3-one], for which the MIC in assay [1] was 2 µg/mL (≈ 4.07 µM); in assay [2], 0.125 µg/mL (≈ 0.254 µM); in assay [3], 0.125 µg/mL (≈ 0.254 µM); in assay [4] it was 1 µg/mL (≈ 2.03 µM); in assay [5], at most 0.016 µg/mL.
As to `COc1cccc(-c2cccc(CNCC[C@H]3CN(c4ccc5c(c4)NC(=O)CO5)C(=O)O3)c2O)n1` [Example 90, 6-((S)-5-{2-[2-hydroxy-3-(6-methoxy-pyridin-2-yl)-benzylamino]-ethyl}-2-oxo-oxazolidin-3-yl)-4H-benzo[1,4]oxazin-3-one], the MIC is 2 µg/mL (≈ 4.08 µM) in assay [1]; 0.031 µg/mL (≈ 0.0632 µM) in assay [2]; 0.063 µg/mL (≈ 0.128 µM) in assay [3]; 0.5 µg/mL (≈ 1.02 µM) in assay [4]; at most 0.016 µg/mL in assay [5].
For `COc1ccc(C#N)c(-c2cccc(CNCC[C@H]3CN(c4ccc5c(n4)NC(=O)CO5)C(=O)O3)c2)c1` [Example 42, 5-methoxy-3′-({2-[(S)-2-oxo-3-(3-oxo-3,4-dihydro-2H-pyrido[3,2-b][1,4]oxazin-6-yl)-oxazolidin-5-yl]-ethylamino}-methyl)-biphenyl-2-carbonitrile] the same measures were 1 µg/mL (≈ 2 µM), 0.125 µg/mL (≈ 0.25 µM), 0.063 µg/mL (≈ 0.126 µM), 0.5 µg/mL (≈ 1 µM) and at most 0.016 µg/mL.
Taken in the same sequence, the figures for `COc1cnnc(-c2cccc(CNCC[C@@H]3CN(c4ccc5c(c4)NC(=O)CS5)C(=O)O3)c2)c1` [Example 30, 6-((R)-5-{2-[3-(5-methoxy-pyridazin-3-yl)-benzylamino]-ethyl}-2-oxo-oxazolidin-3-yl)-4H-benzo[1,4]thiazin-3-one] were 4 µg/mL (≈ 8.14 µM), 0.125 µg/mL (≈ 0.254 µM), 0.125 µg/mL (≈ 0.254 µM), 0.25 µg/mL (≈ 0.509 µM) and 0.031 µg/mL (≈ 0.0631 µM).
Taken in the same sequence, the figures for `COc1cnnc(-c2cccc(CNCC[C@@H]3CN(c4ccc5c(n4)NC(=O)CO5)C(=O)O3)c2)c1` [Example 97, 6-((R)-5-{2-[3-(5-methoxy-pyridazin-3-yl)-benzylamino]-ethyl}-2-oxo-oxazolidin-3-yl)-4H-pyrido[3,2-b][1,4]oxazin-3-one] were 8 µg/mL (≈ 16.8 µM), 0.25 µg/mL (≈ 0.525 µM), 0.25 µg/mL (≈ 0.525 µM), 0.25 µg/mL (≈ 0.525 µM) and 0.031 µg/mL (≈ 0.0651 µM).
Consider `COc1cccc(-c2cnnc(CNCC[C@H]3CN(c4ccc5c(n4)NC(=O)CO5)C(=O)O3)c2)c1` [Example 103, 6-[(S)-5-(2-{[5-(3-methoxy-phenyl)-pyridazin-3-ylmethyl]-amino}-ethyl)-2-oxo-oxazolidin-3-yl]-4H-pyrido[3,2-b][1,4]oxazin-3-one], for which the MIC in assay [1] was found to be 2 µg/mL (≈ 4.2 µM); in assay [2] it was 1 µg/mL (≈ 2.1 µM); in assay [3], 0.25 µg/mL (≈ 0.525 µM); in assay [4] it was 0.5 µg/mL (≈ 1.05 µM); in assay [5], 0.063 µg/mL (≈ 0.132 µM).
For `COc1cccc(-c2ccnc(CNCC[C@@H]3CN(c4ccc5c(c4)NC(=O)CS5)C(=O)O3)c2)c1` [Example 21, 6-[(R)-5-(2-{[4-(3-methoxy-phenyl)-pyridin-2-ylmethyl]-amino}-ethyl)-2-oxo-oxazolidin-3-yl]-4H-benzo[1,4]thiazin-3-one] the same measures were 1 µg/mL (≈ 2.04 µM), 0.125 µg/mL (≈ 0.255 µM), 0.125 µg/mL (≈ 0.255 µM), 0.25 µg/mL (≈ 0.51 µM) and 0.031 µg/mL (≈ 0.0632 µM).
Turning to `COc1cc(-c2cccc(CNCC[C@@H]3CN(c4ccc5c(c4)NC(=O)CS5)C(=O)O3)c2)ccc1C(N)=O` [Example 29, 3-methoxy-3′-({2-[(R)-2-oxo-3-(3-oxo-3,4-dihydro-2H-benzo[1,4]thiazin-6-yl)-oxazolidin-5-yl]-ethylamino}-methyl)-biphenyl-4-carboxylic acid amide], the MIC in assay [1] is 8 µg/mL (≈ 15 µM); in assay [2], 2 µg/mL (≈ 3.76 µM); in assay [3], 1 µg/mL (≈ 1.88 µM); in assay [4], 2 µg/mL (≈ 3.76 µM); in assay [5], 0.063 µg/mL (≈ 0.118 µM).
For `COc1cccc(-c2cccc(CNCC[C@H]3CN(c4ccc5c(c4)NC(=O)CS5)C(=O)O3)c2)n1` [Example 43, 6-((S)-5-{2-[3-(6-methoxy-pyridin-2-yl)-benzylamino]-ethyl}-2-oxo-oxazolidin-3-yl)-4H-benzo[1,4]thiazin-3-one], the MIC in assay [1] was 2 µg/mL (≈ 4.08 µM); in assay [2] it was 0.063 µg/mL (≈ 0.128 µM); in assay [3], 0.125 µg/mL (≈ 0.255 µM); in assay [4] it was 0.5 µg/mL (≈ 1.02 µM); in assay [5], at most 0.016 µg/mL.
For `COc1ccc(C#N)c(-c2cccc(CNCC[C@@H]3CN(c4ccc5c(n4)NC(=O)CO5)C(=O)O3)c2)c1` [Example 32, 5-methoxy-3′-({2-[(R)-2-oxo-3-(3-oxo-3,4-dihydro-2H-pyrido[3,2-b][1,4]oxazin-6-yl)-oxazolidin-5-yl]-ethylamino}-methyl)-biphenyl-2-carbonitrile] the same measures were 2 µg/mL (≈ 4 µM), 0.125 µg/mL (≈ 0.25 µM), 0.125 µg/mL (≈ 0.25 µM), 0.5 µg/mL (≈ 1 µM) and at most 0.016 µg/mL.
Taken in the same sequence, the figures for `COc1cccc(-c2cccc(CNCCc3nn(-c4ccc5c(n4)NC(=O)CO5)c(=O)o3)c2O)n1` [Example 74, 6-(5-{2-[2-hydroxy-3-(6-methoxy-pyridin-2-yl)-benzylamino]-ethyl}-2-oxo-[1,3,4]oxadiazol-3-yl)-4H-pyrido[3,2-b][1,4]oxazin-3-one] were 0.5 µg/mL (≈ 1.02 µM), 0.063 µg/mL (≈ 0.128 µM), 0.125 µg/mL (≈ 0.255 µM), 0.25 µg/mL (≈ 0.51 µM) and at most 0.016 µg/mL.
